ChEMBL document CHEMBL1143852, “Controlled trial of a 5-day course of telithromycin versus doxycycline for treatment of mild to moderate scrub typhus” (2007)

Test system: Orientia tsutsugamushi
Experiment: Antimicrobial activity against doxycyclin-resistant Orientia tsutsugamushi in patient of scrub typhus assessed as recovery from infection
Format: functional

| Structure (SMILES) | Activity |
| --- | --- |
| C[C@H]1c2cccc(O)c2C(=O)C2=C(O)[C@]3(O)C(=O)C(C(N)=O)=C(O)[C@@H](N(C)C)[C@@H]3[C@@H](O)[C@@H]21.O [DOXYCYCLINE] | 97.8% |
| CC[C@H]1OC(=O)[C@H](C)C(=O)[C@H](C)[C@@H](O[C@@H]2O[C@H](C)C[C@H](N(C)C)[C@H]2O)[C@](C)(OC)C[C@@H](C)C(=O)[C@H](C)[C@H]2N(CCCCn3cnc(-c4cccnc4)c3)C(=O)O[C@]12C [TELITHROMYCIN] | 100% |
